# Legend:
# [1] = tested on: ERK phosphorylation in primary rat astrocytes; test: ERK phosphorylation in primary rat astrocytes (MSD pERK assay); format: cell-based; settings: Astrocyte, 10 min, 10-minute exposure, mean of n=3
# Method: For the experiments using rat primary astrocytes, eight-point concentration-response curves were generated for AKT and ERK phosphorylation in primary rat astrocytes cultures in response to a 10-minute treatment with ozanimod (100 nM-46 pM), Compound 3 (10 nM-5 pM), Compound 1 (10 nM-5 pM), or FTY720-P (10 nM-5 pM). Phosphorylation of AKT and ERK was quantified using Meso Scale Discovery assay kits (MSD Mutli-Spot Phopho-AKT (Ser473) Assay Kit and MSD Multi-Spot MAP Kinase Phosphoprotein Assay Whole Cell Lysate Kit) and imaging platform. AKT and ERK phosphorylation within treated astrocytes were assessed as the mean change in signal intensity compared to DMSO vehicle and the half maximal effective concentration (EC50) was determined using non-linear regression.
# Embryonic day18 (E18) rat cortices were purchased from BrainBits LLC. (Springfield, Ill.) and were cultured according to the supplier's protocol. Briefly, cortices were incubated at 37° C. for 10 minutes in activated papain solution before trituration in hibernation medium containing B27 supplement using a modified siliconized glass Pasteur pipette. The cell suspension was centrifuged at 1100×g for 1 minute at room temperature (RT). The cell pellet was then resuspended in NbAstro medium (BrainBits LLC.) and the live cell density was assessed using a cell counter. Primary cells were plated at a density of 7500 cells/cm2 in T75 tissue culture flasks coated with poly-D-lysine (PDL) in a total volume of 12 mL of NbAstro media, and incubated for 10-14 days at 37° C. 5% CO2. After 10-14 days, primary astrocytes in passage 0 (P0) that had reached confluency in the T75 flasks were detached using TrypLE detachment reagent, pelleted at 300×g, and plated into poly-d-lysine coated T225 flasks in 20 mL of NbAstro media, and incubated for another 7 days at 37° C. 5% CO2. After 7 days, primary P1 astrocytes in confluent T225 flasks were detached using TrypLE detachment reagent, pelleted at 300×g, and plated intopoly-d-lysine coated 96-well plates at 10,000 cells per well in 200 μL of NbAstro media, and incubated for 7 days at 37° C. 5% CO2. After 7 days, P2 primary astrocytes were utilized for pAKT and pERK assays.
# The pERK (phosphorylated ERK)/pMAPkinase assay was performed according to the manufacturer's protocol. Briefly, MSD pERK/pMAPkinase plates were blocked for 1-2 hours by adding 150 μL of blocker A prepared in 1× Tris wash buffer. […] Following antibody incubation, plates were washed three times with 150 μL of 1× Tris wash buffer and 1× read buffer (150 μL/well) was added. Finally, the plates were read in the MSD imager platform to assess the pERK levels.
# AKT and ERK phosphorylation data were analyzed by non-linear regression (GraphPad Prism, version 6) to determine the EC50 values.
# [2] = tested on: ERK phosphorylation in primary human astrocytes; test: ERK phosphorylation in primary human cortical astrocytes (AlphaLISA SureFire Ultra); format: cell-based; settings: Astrocyte, 10 min, 10-minute exposure, n=3-5
# Method: For the experiments using mouse and human primary astrocytes, ten-point concentration-response curves (90 nM-4.57 pM or 30 nM-1.52 pM) were generated for AKT and/or ERK phosphorylation in primary human and mouse cortical astrocytic cultures in response to a 10-minute treatment with ozanimod, Compound 3, Compound 1, or FTY720-P. AKT and ERK phosphorylation were quantified using AlphaLISA SureFire Ultra Assay kits and the EnVision Plate Reader. AKT and ERK phosphorylation within treated astrocytes were expressed as the mean change in signal intensity compared to the dimethyl sulfoxide (DMSO) vehicle and the half maximal effective concentration (EC50) was determined using non-linear regression.
# Primary human astrocytes were purchased from ScienCell Research Laboratories, Inc. and cultured according to the supplier's protocol. The astrocytes were obtained from the human cerebral cortex, cryopreserved at passage one, and delivered frozen. The frozen vials of cells were gently thawed in a 37° C. water bath. Once the contents of the vial were completely thawed, the cell solution was dispensed into a poly-L-lysine (PLL) coated T75 tissue culture flask with 16 mL of human Astrocyte Media, (ScienCell Research Laboratories, Inc.) and incubated at 37° C. 5% CO2. Once the human astrocytes had reached confluency in the T75 flask, they were detached using trypsin/EDTA 0.25%, pelleted at 300×g, split into two PLL coated T225 tissue culture flasks in 40 mL of astrocyte media, and incubated at 37° C. 5% CO2. Once the astrocytes reached confluency in the T225 flasks, they were detached using trypsin/EDTA 0.25% solution, pelleted at 300×g, plated into poly-D-lysine (PDL) coated 96-well plates at a density of 10,000 cells per well in 200 μL human Astrocyte Media, and incubated at 37° C. 5% CO2. Half of the media was replenished every 3-4 days. After 5-7 days of incubation, the P2 human astrocyte plates were utilized for the pERK and pAKT assays.
# Cell lysis and detection of pERK were performed according to the PerkinElmer AlphaLISA SureFire Ultra p-ERK1/2 (Thr202/TYR 204) assay protocol. Astrocytes were lysed in the 96-well plate following a 10 minute incubation with compounds with shaking at RT. The astrocytic lysates (10 μL/well) were transferred into a 384-well OptiPlate. As specified by the assay protocol, an acceptor bead mix and a donor bead mix (5 μL/well for each) were added to the plate under subdued light. Plates were sealed with adhesive plate seals and incubated in the dark for 2 hours at RT. The plates were read on the EnVision Plate Reader to assess the pERK levels.
# The AKT and ERK phosphorylation data, collected by a Perkin Elmer EnVision Microplate Reader, was analyzed by non-linear regression (GraphPad Prism, version 7.03) to determine the EC50 values.
EC50 [1],EC50 [2],Structure (SMILES)
0.29 nM,2.12 nM,"CC(C)Oc1ccc(-c2nc(-c3cccc4c3CCC4=O)no2)cc1C#N [Compound 1, 2-isopropoxy-5-(3-(1-oxo-2,3-dihydro-1H-inden-4-yl)-1,2,4-oxadiazol-5-yl)benzonitrile]"
0.8 nM,1.93 nM,CC(C)Oc1ccc(-c2nc(-c3cccc4c3CC[C@@H]4NCCO)no2)cc1C#N [Ozanimod]
